The target of data set [1] is BBCEC monolayers. The settings on record: +saponin, published value; cited from earlier work.
Data set [2] in a line: Brain uptake one hour after i.v. injection. It counts as in vivo. Particulars: mice, one hour after i.v. injection of [125I]-protein (FIG. 11a). As for the experimental part: FIG. 11 examines the accumulation and transcytosis of p97. FIG. 11a, of [^125I]-p97, [^125I]-BSA and [^125I]-holo-transferrin one hour after i.v. injection. The radioactivity in brain was compared between the three compounds. (n=3); FIG. 11b, Accumulation of p97 and transferrin into the mouse brain parenchyma. In situ brain perfusion was performed with human [^125I]-p97 or [^125I]-holo-transferrin at a final concentration of 10 nM via a catheter inserted in the right common carotid artery. The volume of distribution (VD) of [^125I]-proteins were obtained in the whole brain homogenate (white bars), in brain capillaries (solid bars) and in brain parenchyma (hatched bars) after isolation of the right hemisphere and capillary depletion. Results were obtained for p97 (n=10) and for holo-transferrin (n=6); FIG. 11c, Transcytosis of p97 across BBCEC monolayers. Transcytosis experiments were performed 37° C. (open circles) and 4° C. (closed circles) with BBCEC monolayers. […] Apical-to-basal and basal-to-apical transport of [^125I]-p97 (25 nM) was measured for 2 hrs at 37° C. At the end of the experiment, [^125I]-p97 was assessed in the lower or upper chambers of each well by TCA precipitation (n=4).
A. Brain uptake and in situ brain perfusion. […] The serum and brain samples were collected and the levels of radioactivity were measured. […]

The test system of data set [3] is BBCEC monolayers. In words: Accumulation of ligands in BBCEC monolayers. The format is cell-based, bovine. Particulars: FIG. 7. On the procedure:
FIG. 7 illustrates the results of experiments where the ligands p97, Lf and Tf were heated or not heated prior to the binding study. In all cases, binding experiments were conducted in the transwell apparatus as described previously, with the exception that binding was conducted at either 4° C. or at 37° C. For the 37° C. trial, a separate experiment was conducted where the ligand was boiled for 30 mins then rapidly cooled prior to administration on the transwell plates.
FIG. 13 illustrates the transcytosis and accumulation of p97 and transferrin in BBCEC monolayers. FIG. 13a, Transcytosis experiments were performed at 37° C. (solid bars) or 4° C. (white bars). [^125I]-p97 or bovine [^125I]-holo-transferrin (1 mg/ml) was added to the upper side of the cell-covered filter. At the end of the experiment, radiolabelled proteins were measured in the lower chamber of each well by TCA precipitation (n=4). […] The surface plasmon resonance response obtained for native p97 and boiled p97 was plotted (in relative units (RU)) as a function of time; FIG. 13c, The accumulation of both proteins into BBEC cells were also measured. […] Accumulation of both denatured proteins (grey bars) was also measured at 37° C. Filters were then removed, and the radioactivity associated with the cells was quantified (n=3). […]

Data set [4] concerns bovine brain capillary endothelial cell monolayers. In words: Competition of [125I]-p97 binding on bovine brain capillary endothelial cell monolayers. Particulars: [125I]-p97 25 nM, 2 h at 4° C., competitor 7.5 micromolar (FIG. 3). On the procedure: FIG. 3. Binding of p97 on bovine brain capillary endothelial cell monolayers. Binding p97 was performed with BBCECs that were pre-incubated 2 hrs in Ringer-Hepes to avoid any interference from the astrocytes. For the binding experiments, cells were incubated for 2 h at 4° C. in Ringer/Hepes in the presence of [^125I]-p97 (25 nM) and 7.5 micromolar concentrations of cold-p97, transferrin or lactoferrin, respectively. At the end of the incubation, the filters were gently washed at 4° C. three times with 4 ml of cold-PBS. Then the associated radioactivity of endothelial cells was determined by removing the membrane of the culture insert and counting it in a gamma counter.
B. Binding studies of p97. Binding of p97 was performed with BBCECs and Rat Brain Endothelial Cells that were pre-incubated 2 hrs in Ringer/Hepes to avoid any interference from the astrocytes.
For the binding experiments, cells were incubated for 2 h at 4° C. in Ringer/Hepes in the presence of [^125I]-p97 (25 nM) and increasing concentrations of cold-p97 or high (7.5 micromolar) concentrations of transferrin or lactoferrin. At the end of the incubation, the filters were gently washed at 4° C. three times with 4 ml of cold-PBS. Then the associated radioactivity of endothelial cells was determined by removing the membrane of the culture insert and counting it in a gamma counter.

On to “transferrin: transferrin (Tf), iron-binding serum protein used as comparator and competitor”, for which the equilibrium dissociation constant (Kd) (commonly the equilibrium constant for the complex coming apart) in data set [1] is 11 nM. In data set [2], the Brain/serum ratio came to 0.008. Moreover, the “Accumulation in BBB model cells” value in data set [3] was “very little accumulation”. The “Inhibition of [125I]-p97 binding to BBCECs” value in data set [4] is “did not block or reduce”.

The values above are taken from patent US7977317B2, “Compositions and methods for modulating blood-brain barrier transport” (Raptor Pharmaceutical Inc., priority 2001, dated 2011).
